Data set [1] deals with ECa-109 cell line. In words: Cytotoxicity against human Eca-109 cells assessed as reduction in cell viability incubated for 72 hrs by MTT assay. It is filed as functional, cell-based. As to conditions: ECa-109, 72 h. Background: Formazan colour is commonly taken as a measure of viable cells.
Data set [2] relates to MGC-803. The data set can be described thus: Cytotoxicity against human MGC-803 cells assessed as reduction in cell viability incubated for 72 hrs by MTT assay. It counts as functional, cell-based. Conditions: MGC-803, 72 h.
For data set [3], the system named is PC-3. In words: Cytotoxicity against human PC-3 cells assessed as reduction in cell viability incubated for 72 hrs by MTT assay. It is filed as functional, cell-based. As to conditions: PC-3, 72 h.
For data set [4], the system named is MCF7. In words: Cytotoxicity against human MCF7 cells assessed as reduction in cell viability incubated for 72 hrs by MTT assay. It counts as functional, cell-based. Conditions: MCF7, 72 h.
Data set [5] concerns A549. In words: Cytotoxicity against human A549 cells assessed as reduction in cell viability incubated for 72 hrs by MTT assay. It counts as functional, cell-based. Conditions: A549, 72 h.
Data set [6] can be described thus: Cytotoxicity against human HEp-2 cells assessed as reduction in cell viability incubated for 48 hrs by MTT assay. It counts as toxicity, cell-based.
The subject of data set [7] is MCF7. The data set can be described thus: Antiproliferative activity against human MCF7 cells assessed as reduction in cell growth incubated for 48 hrs by MTT assay. As to conditions: MCF7, 48 h. It is filed as functional, cell-based.
In data set [8] the test system is SK-OV-3. The data set can be described thus: Antiproliferative activity against human SK-OV-3 cells assessed as reduction in cell growth incubated for 48 hrs by MTT assay. It counts as functional, cell-based. As to conditions: SK-OV-3, 48 h.
For data set [9], the system named is HeLa. In words: Antiproliferative activity against human HeLa cells assessed as reduction in cell growth incubated for 48 hrs by MTT assay. It is filed as functional, cell-based.
Data set [10] has as its system HepG2. The data set can be described thus: Antiproliferative activity against human HepG2 cells assessed as reduction in cell growth incubated for 48 hrs by MTT assay. It counts as functional, cell-based. As to conditions: HepG2, 48 h.

Here are results for 32 compounds from ChEMBL document CHEMBL5329192, “Synthesis, biological activities, and future perspectives of steroidal monocyclic pyridines” (RSC Med Chem, 2023).

One may read the IC50 as the point on the concentration scale where inhibition reaches its midpoint. For orientation: CC50 means the concentration at which the toxic effect on the cells reaches its halfway point.

Take `C[C@]12CC[C@H]3[C@@H](CC=C4C[C@@H](O)CC[C@@]43C)[C@@H]1CC[C@@H]2c1cc(-c2ccc(F)c(Br)c2)c(C#N)c(N)n1`: the IC50 in data set [1] is above 64 µM; in data set [2], above 64 µM; in [3] it was 5.9 µM; in data set [4] it was 37.3 µM; in data set [5], 56.2 µM.
Consider `C[C@]12CC[C@H]3[C@@H](CC=C4C[C@@H](O)CC[C@@]43C)[C@@H]1CC[C@@H]2c1cc(-c2ccccc2F)c(C#N)c(N)n1`, for which the IC50 in [1] was 17.8 µM; in [2], 9.4 µM; in data set [3] it was 3.2 µM; in [4] it was 10.1 µM; in data set [5], 28.8 µM.
On to `CC(=O)O[C@H]1CC[C@@]2(C)C(=CC[C@H]3[C@@H]4CC[C@H](c5cc(-c6cccc(Cl)c6)c(C#N)c(N)n5)[C@@]4(C)CC[C@@H]32)C1`, for which, in [6], the CC50 at 48 h came out at 181 µM.
In the case of `C[C@]12CC[C@H]3[C@@H](CC=C4C[C@@H](O)CC[C@@]43C)[C@@H]1CC[C@@H]2c1cc(-c2ccc(F)cc2F)c(C#N)c(N)n1`, the IC50 in data set [1] was 58 µM; in data set [2] it was 22.7 µM; in [3], 3.5 µM; in data set [4] it was 30.3 µM; in data set [5], above 64 µM.
As for `COc1cccc(-c2cc([C@H]3CC[C@H]4[C@@H]5CC=C6C[C@@H](OC(C)=O)CC[C@]6(C)[C@H]5CC[C@]34C)nc(N)c2C#N)c1`, the CC50 at 48 h in data set [6] was 160 µM.
Turning to `COc1ccccc1-c1cc([C@H]2CC[C@H]3[C@@H]4CC=C5C[C@@H](OC(C)=O)CC[C@]5(C)[C@H]4CC[C@]23C)nc(N)c1C#N`, in [6], the CC50 at 48 h was 299 µM.
Turning to `C[C@]12CC[C@H]3[C@@H](CC=C4C[C@@H](O)CC[C@@]43C)[C@@H]1CC[C@@H]2c1cc(-c2cccc(Br)c2)c(C#N)c(N)n1`, the IC50 in data set [7] was found to be 28.9 µM; in data set [8], 17.7 µM; in [9], 46.5 µM; in data set [10], 41.2 µM.
For `CC(=O)O[C@H]1CC[C@@]2(C)C(=CC[C@H]3[C@@H]4CC[C@H](c5cc(-c6ccccc6)c(C#N)c(N)n5)[C@@]4(C)CC[C@@H]32)C1`, the CC50 at 48 h in data set [6] was 227 µM.
As to `CC(=O)O[C@H]1CC[C@@]2(C)C(=CC[C@H]3[C@@H]4CC[C@H](c5cc(-c6c(F)cccc6F)c(C#N)c(N)n5)[C@@]4(C)CC[C@@H]32)C1`, the CC50 at 48 h in data set [6] amounted to 374 µM.
Consider `CC(=O)O[C@H]1CC[C@@]2(C)C(=CC[C@H]3[C@@H]4CC[C@H](c5cc(-c6ccc(C#N)cc6)c(C#N)c(N)n5)[C@@]4(C)CC[C@@H]32)C1`, for which the CC50 at 48 h in [6] turned out to be 39.3 µM.
For the compound `C[C@]12CC[C@H]3[C@@H](CC=C4C[C@@H](O)CC[C@@]43C)[C@@H]1CC[C@@H]2c1cc(-c2cccc(O)c2)c(C#N)c(N)n1`, the IC50 in [7] is 6.28 µM; in data set [8], 7.02 µM; in data set [9], 7.36 µM; in data set [10], 13.8 µM.
On to `C[C@]12CC[C@H]3[C@@H](CC=C4C[C@@H](O)CC[C@@]43C)[C@@H]1CC[C@@H]2c1cc(-c2ccccc2Br)c(C#N)c(N)n1`, for which the 50% inhibitory concentration (IC50) amounted to 33.9 µM in data set [7], 11.2 µM in [8], 18.6 µM in data set [9] and 28.4 µM in data set [10].
The corresponding values for `C[C@]12CC[C@H]3[C@@H](CC=C4C[C@@H](O)CC[C@@]43C)[C@@H]1CC[C@@H]2c1cc(-c2cccnc2)c(C#N)c(N)n1` are 30.2 µM, 92.2 µM, 105 µM and 75.5 µM.
Consider `C[C@]12CC[C@H]3[C@@H](CC=C4C[C@@H](O)CC[C@@]43C)[C@@H]1CC[C@@H]2c1cc(-c2c(F)cccc2F)c(C#N)c(N)n1`, for which the IC50 in [1] was above 64 µM; in data set [2], 8.8 µM; in [3], 2 µM; in [4], 11.6 µM; in data set [5] it was 17.3 µM.
For `C[C@]12CC[C@H]3[C@@H](CC=C4C[C@@H](O)CC[C@@]43C)[C@@H]1CC[C@@H]2c1cc(-c2ccnc(Br)c2)c(C#N)c(N)n1`, the IC50 in [1] was 22.3 µM; in [2], 19.7 µM; in [3], 7 µM; in data set [4], above 64 µM; in [5], 43.6 µM.
In the case of `C[C@]12CC[C@H]3[C@@H](CC=C4C[C@@H](O)CC[C@@]43C)[C@@H]1CC[C@@H]2c1cc(-c2ccc(OCc3ccccc3)cc2)c(C#N)c(N)n1`, the concentration for half-maximal inhibition (IC50) in data set [7] turned out to be 19 µM; in data set [8], 26.1 µM; in data set [9], 63.2 µM; in [10] it was 15.9 µM.
As for `CC(=O)O[C@H]1CC[C@@]2(C)C(=CC[C@H]3[C@@H]4CC[C@H](c5cc(-c6ccc(Cl)cc6)c(C#N)c(N)n5)[C@@]4(C)CC[C@@H]32)C1`, the 50% cytotoxic concentration (CC50) at 48 h in data set [6] worked out at 252 µM.
Take `CCOc1ccc(-c2cc([C@H]3CC[C@H]4[C@@H]5CC=C6C[C@@H](O)CC[C@]6(C)[C@H]5CC[C@]34C)nc(N)c2C#N)cc1`: the half-maximal inhibitory concentration (IC50) in data set [7] amounted to 31.2 µM; in [8], 28.3 µM; in data set [9], 26.7 µM; in data set [10] it was 26.7 µM.
On to `C[C@]12CC[C@H]3[C@@H](CC=C4C[C@@H](O)CC[C@@]43C)[C@@H]1CC[C@@H]2c1cc(-c2cccc(OCc3ccccc3)c2)c(C#N)c(N)n1`, for which the IC50 is 41.1 µM in [7], 21.8 µM in data set [8], 22 µM in data set [9] and 21.5 µM in data set [10].
As for `COc1cccc(-c2cc([C@H]3CC[C@H]4[C@@H]5CC=C6C[C@@H](O)CC[C@]6(C)[C@H]5CC[C@]34C)nc(N)c2C#N)c1`, the IC50 in data set [1] is above 64 µM; in [2], above 64 µM; in data set [3], 7.5 µM; in data set [4] it was 27.4 µM; in data set [5], above 64 µM.
With `C[C@]12CC[C@H]3[C@@H](CC=C4C[C@@H](O)CC[C@@]43C)[C@@H]1CC[C@@H]2c1cc(-c2ccc(OCc3ccccc3)c(OCc3ccccc3)c2OCc2ccccc2)c(C#N)c(N)n1`, the half-inhibitory concentration (IC50) in data set [7] stood at 105 µM; in [8] it was 33.9 µM; in [9], 38.9 µM; in data set [10] it was 41.4 µM.
For the compound `C[C@]12CC[C@H]3[C@@H](CC=C4C[C@@H](O)CC[C@@]43C)[C@@H]1CC[C@@H]2c1cc(-c2ccc(Br)cc2)c(C#N)c(N)n1`, the IC50 in data set [7] was 12 µM; in [8] it was 7.66 µM; in data set [9], 12.2 µM; in data set [10], 15.2 µM.
Turning to `COc1ccc(-c2cc([C@H]3CC[C@H]4[C@@H]5CC=C6C[C@@H](O)CC[C@]6(C)[C@H]5CC[C@]34C)nc(N)c2C#N)cc1OC`, the IC50 is 107 µM in data set [7], 29.5 µM in [8], 107 µM in [9] and 55.4 µM in data set [10].
For the compound `COc1ccc(-c2cc([C@H]3CC[C@H]4[C@@H]5CC=C6C[C@@H](O)CC[C@]6(C)[C@H]5CC[C@]34C)nc(N)c2C#N)cc1O`, the IC50 amounted to 17 µM in data set [7], 17.3 µM in data set [8], 15 µM in data set [9] and 50.2 µM in data set [10].
In the case of `C[C@]12CC[C@H]3[C@@H](CC=C4C[C@@H](O)CC[C@@]43C)[C@@H]1CC[C@@H]2c1cc(-c2ccncc2)c(C#N)c(N)n1`, the IC50 was found to be 47.8 µM in [7], 18.9 µM in data set [8], 73.3 µM in [9] and 103 µM in data set [10].
For `C[C@]12CC[C@H]3[C@@H](CC=C4C[C@@H](O)CC[C@@]43C)[C@@H]1CC[C@@H]2c1cc(-c2ccc(Cl)cc2)c(C#N)c(N)n1`, the IC50 in data set [1] was 48.9 µM; in [2], 55 µM; in data set [3] it was 15.7 µM; in data set [4], 26.2 µM; in [5], 43.9 µM.
Turning to `C[C@]12CC[C@H]3[C@@H](CC=C4C[C@@H](O)CC[C@@]43C)[C@@H]1CC[C@@H]2c1cc(-c2ccco2)c(C#N)c(N)n1`, the IC50 in data set [7] was 18.8 µM; in data set [8], 13.9 µM; in data set [9], 16.3 µM; in [10] it was 25.8 µM.
As to `COc1ccc(-c2cc([C@H]3CC[C@H]4[C@@H]5CC=C6C[C@@H](OC(C)=O)CC[C@]6(C)[C@H]5CC[C@]34C)nc(N)c2C#N)cc1`, the CC50 at 48 h in data set [6] was above 400 µM.
In the case of `C[C@]12CC[C@H]3[C@@H](CC=C4C[C@@H](O)CC[C@@]43C)[C@@H]1CC[C@@H]2c1cc(-c2ccccc2Cl)c(C#N)c(N)n1`, the IC50 in data set [1] turned out to be 30.1 µM; in [2] it was 8.4 µM; in [3], 3.7 µM; in data set [4] it was 18.8 µM; in data set [5], 33.3 µM.
As for `C[C@]12CC[C@H]3[C@@H](CC=C4C[C@@H](O)CC[C@@]43C)[C@@H]1CC[C@@H]2c1cc(-c2cccc(Cl)c2)c(C#N)c(N)n1`, the IC50 is above 64 µM in [1]; above 64 µM in data set [2]; 9.7 µM in data set [3]; 29 µM in [4]; 30.3 µM in [5].
In the case of `CC(=O)O[C@H]1CC[C@@]2(C)C(=CC[C@H]3[C@@H]4CC[C@H](c5cc(-c6ccc(F)cc6F)c(C#N)c(N)n5)[C@@]4(C)CC[C@@H]32)C1`, the CC50 at 48 h in data set [6] amounted to 174 µM.
As for `COc1ccccc1-c1cc([C@H]2CC[C@H]3[C@@H]4CC=C5C[C@@H](O)CC[C@]5(C)[C@H]4CC[C@]23C)nc(N)c1C#N`, the IC50 is 19.7 µM in data set [1]; 17 µM in data set [2]; 8 µM in [3]; 45.2 µM in data set [4]; 20.7 µM in [5].
